Numbered stars: 1 amine (or outer) side, 2 acyl side, 3 side chain; on linkers, the order of the positions; unused ones are H or OH. Bridge positions count the residues as written; N and C are the ends. Square brackets hold non-standard residues; d marks the D form. Side chains are listed from the residue outwards. Peptide text beside a SMILES is read from it. I, II: the chains in the order shown. * marks the point of attachment. DOTA = O=C(O)CN1CCN(CC(=O)O)CCN(CC(=O)*)CCN(CC(=O)O)CC1; PEG8 = NCCOCCOCCOCCOCCOCCOCCOCCOCCC(=O)O; X6 = C[C@@H]1CN([*:1])[C@@H]1C(=O)[*:2]; γGlu = O=C(O)[C@H](CCC(=O)[*:2])N[*:1]; 2Nal = N[C@@H](Cc1ccc2ccccc2c1)C(=O)O; C12 diacid = O=C(O)CCCCCCCCCCC(=O)*; Palmitoyl = CCCCCCCCCCCCCCCC(=O)*; X7 = C[C@@]1(C(=O)[*:2])CCN1[*:1]; NMeK = CN[C@@H](CCCCN)C(=O)O
Target: T1, human DLL3 (Homo sapiens, UniProt Q9NYJ7)
T1 sequence (Q9NYJ7 27-618): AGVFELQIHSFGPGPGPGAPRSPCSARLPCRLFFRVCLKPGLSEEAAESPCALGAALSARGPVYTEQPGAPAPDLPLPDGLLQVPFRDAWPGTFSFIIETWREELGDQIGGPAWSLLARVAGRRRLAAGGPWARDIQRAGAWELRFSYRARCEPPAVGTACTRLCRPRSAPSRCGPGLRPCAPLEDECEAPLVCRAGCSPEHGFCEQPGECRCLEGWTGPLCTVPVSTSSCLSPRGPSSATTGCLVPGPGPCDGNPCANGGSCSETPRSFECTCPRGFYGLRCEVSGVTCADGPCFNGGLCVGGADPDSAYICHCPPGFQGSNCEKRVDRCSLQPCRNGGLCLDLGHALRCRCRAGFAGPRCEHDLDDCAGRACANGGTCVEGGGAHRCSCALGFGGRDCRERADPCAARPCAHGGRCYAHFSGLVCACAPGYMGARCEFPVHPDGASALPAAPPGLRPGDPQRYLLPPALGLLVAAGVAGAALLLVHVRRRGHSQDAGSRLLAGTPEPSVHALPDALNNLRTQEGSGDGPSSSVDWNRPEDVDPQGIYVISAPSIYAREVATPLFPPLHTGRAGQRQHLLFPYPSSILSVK
Assay: Affinity determination by Surface Plasmon Resonance (SPR)
Format: binding
Settings: 25° C., biotinylated human DLL3 immobilized on streptavidin sensor chip, 1:1 binding model; read-out: SPR KD
Procedure, shortened: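 Kinetic and affinity constants were derived by fitting sensorgrams to a 1:1 binding model. Graded compound concentrations flowed at 100 μL/minute in 20 mM phosphate running buffer with 2% DMSO over streptavidin-immobilized biotinylated human DLL3, reference-subtracted.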

Structure (SMILES)	Kd
CCCCCCCCCCCCCCCC(=O)NCCCC[C@H](NC(=O)[C@@H](NC(=O)[C@H](Cc1c[nH]c2ccccc12)NC(C)=O)[C@@H](C)O)C(=O)N[C@H]1CSSC[C@@H](C(=O)N[C@@H](Cc2c[nH]c3ccccc23)C(=O)N2CCC[C@H]2C(=O)N[C@H](CCCCNC(=O)CN2CCN(CC(=O)O)CCN(CC(=O)O)CCN(CC(=O)O)CC2)C(N)=O)NC(=O)[C@H](CC(=O)O)NC(=O)[C@H](Cc2cnc[nH]2)NC(=O)[C@H](Cc2c[nH]c3ccccc23)NC(=O)[C@H](CC(N)=O)NC(=O)[C@H](CC(N)=O)NC1=O [compound 348, Ac-W-T-K(C16)-C(3)-N-N-W-H-D-C(3)-W-P-[D-Lys(DOTA)]-NH2] (Ac-WTK(Palmitoyl)CNNWHDCWP[dK](DOTA)-NH2; disulfide 4-10)	100 to 300 nM
CC[C@H](C)[C@H](NC(=O)[C@@H](NC(=O)[C@H](Cc1c[nH]c2ccccc12)NC(=O)CCCCCCCCCCC(=O)O)[C@@H](C)O)C(=O)N[C@H]1CSSC[C@@H](C(=O)N[C@@H](Cc2c[nH]c3ccccc23)C(=O)N2CCC[C@H]2C(=O)N[C@H](CCCCNC(=O)CN2CCN(CC(=O)O)CCN(CC(=O)O)CCN(CC(=O)O)CC2)C(N)=O)NC(=O)[C@H](CC(=O)O)NC(=O)[C@H](Cc2cnc[nH]2)NC(=O)[C@H](Cc2c[nH]c3ccccc23)NC(=O)[C@H](CC(N)=O)NC(=O)[C@H](CC(N)=O)NC1=O [compound 349, C12OH-W-T-I-C(3)-N-N-W-H-D-C(3)-W-P-[D-Lys(DOTA)]-NH2] ({C12 diacid}-WTICNNWHDCWP[dK](DOTA)-NH2; disulfide 4-10)	1 to 10 nM
CC[C@H](C)[C@H](NC(=O)[C@@H](NC(=O)[C@H](Cc1c[nH]c2ccccc12)NC(C)=O)[C@@H](C)O)C(=O)N[C@H]1CSSC[C@@H](C(=O)N[C@@H](Cc2c[nH]c3ccccc23)C(=O)N(C)[C@@H](CCCCNC(=O)CN2CCN(CC(=O)O)CCN(CC(=O)O)CCN(CC(=O)O)CC2)C(N)=O)NC(=O)[C@H](CC(=O)O)NC(=O)[C@H](Cc2cnc[nH]2)NC(=O)[C@H](Cc2ccc3ccccc3c2)NC(=O)[C@H](CC(N)=O)NC(=O)[C@H](CC(N)=O)NC1=O [compound 352, Ac-W-T-I-C(3)-N-N-(2Nal)-H-D-C(3)-W-[NmeK(DOTA)]-NH2] (Ac-WTICNN[2Nal]HDCW[NMeK](DOTA)-NH2; disulfide 4-10)	< 1 nM
CC[C@H](C)[C@H](NC(=O)[C@@H](NC(=O)[C@H](Cc1c[nH]c2ccccc12)NC(C)=O)[C@@H](C)O)C(=O)N[C@H]1CSSC[C@@H](C(=O)N[C@@H](Cc2c[nH]c3ccccc23)C(=O)N2CCC[C@H]2C(=O)N[C@H](CCCCNC(=O)CNC(=O)[C@H](CO)NC(=O)CNC(=O)[C@H](CO)NC(=O)CNC(=O)[C@H](CO)NC(=O)CN2CCN(CC(=O)O)CCN(CC(=O)O)CCN(CC(=O)O)CC2)C(N)=O)NC(=O)[C@H](CC(=O)O)NC(=O)[C@H](Cc2cnc[nH]2)NC(=O)[C@H](Cc2ccc3ccccc3c2)NC(=O)[C@H](CC(N)=O)NC(=O)[C@H](CC(N)=O)NC1=O [compound 353, Ac-W-T-I-C(3)-N-N-(2Nal)-H-D-C(3)-W-P-[D-Lys(G-S-G-S-G-S-DOTA)]-NH2] (I: Ac-WTICNN[2Nal]HDCWP[dK]-NH2 / II: {DOTA}-SGSGSG; disulfide I:4-I:10; amide I:13-II:C)	< 1 nM
CC[C@H](C)[C@H](NC(=O)[C@@H](NC(=O)[C@H](Cc1c[nH]c2ccccc12)NC(C)=O)[C@@H](C)O)C(=O)N[C@H]1CSSC[C@@H](C(=O)N[C@@H](Cc2c[nH]c3ccccc23)C(=O)N2CCC[C@H]2C(=O)N[C@H](CCCCNC(=O)CC[C@H](NC(=O)CN2CCN(CC(=O)O)CCN(CC(=O)O)CCN(CC(=O)O)CC2)C(=O)O)C(N)=O)NC(=O)[C@H](CC(=O)O)NC(=O)[C@H](Cc2cnc[nH]2)NC(=O)[C@H](Cc2ccc3ccccc3c2)NC(=O)[C@H](CC(N)=O)NC(=O)[C@H](CC(N)=O)NC1=O [compound 354, Ac-W-T-I-C(3)-N-N-(2Nal)-H-D-C(3)-W-P-[D-Lys(gE-DOTA)]-NH2] (Ac-WTICNN[2Nal]HDCWP[dK]([γGlu-DOTA])-NH2; disulfide 4-10)	< 1 nM
CC[C@H](C)[C@H](NC(=O)[C@@H](NC(=O)[C@H](Cc1c[nH]c2ccccc12)NC(C)=O)[C@@H](C)O)C(=O)N[C@H]1CSSC[C@@H](C(=O)N[C@@H](Cc2c[nH]c3ccccc23)C(=O)N2CCC[C@H]2C(=O)N[C@H](CCCCNC(=O)CC[C@H](NC(=O)CC[C@H](NC(=O)CC[C@H](NC(=O)CN2CCN(CC(=O)O)CCN(CC(=O)O)CCN(CC(=O)O)CC2)C(=O)O)C(=O)O)C(=O)O)C(N)=O)NC(=O)[C@H](CC(=O)O)NC(=O)[C@H](Cc2cnc[nH]2)NC(=O)[C@H](Cc2ccc3ccccc3c2)NC(=O)[C@H](CC(N)=O)NC(=O)[C@H](CC(N)=O)NC1=O [compound 355, Ac-W-T-I-C(3)-N-N-(2Nal)-H-D-C(3)-W-P-[D-Lys(gE-gE-gE-DOTA)]-NH2] (Ac-WTICNN[2Nal]HDCWP[dK]([γGlu-γGlu-γGlu-DOTA])-NH2; disulfide 4-10)	< 1 nM
CC[C@H](C)[C@H](NC(=O)[C@@H](NC(=O)[C@H](Cc1c[nH]c2ccccc12)NC(C)=O)[C@@H](C)O)C(=O)N[C@H]1CSSC[C@@H](C(=O)N[C@@H](Cc2c[nH]c3ccccc23)C(=O)N2CCC[C@H]2C(=O)N[C@H](CCCCNC(=O)[C@H]2CCCN2C(=O)CCOCCOCCOCCOCCOCCOCCOCCOCCNC(=O)CN2CCN(CC(=O)O)CCN(CC(=O)O)CCN(CC(=O)O)CC2)C(N)=O)NC(=O)[C@H](CC(=O)O)NC(=O)[C@H](Cc2cnc[nH]2)NC(=O)[C@H](Cc2ccc3ccccc3c2)NC(=O)[C@H](CC(N)=O)NC(=O)[C@H](CC(N)=O)NC1=O [compound 356, Ac-W-T-I-C(3)-N-N-(2Nal)-H-D-C(3)-W-P-[D-Lys((D-Pro)-PEG8-DOTA)]-NH2] (Ac-WTICNN[2Nal]HDCWP[dK]([dP-PEG8-DOTA])-NH2; disulfide 4-10)	< 1 nM
CC[C@H](C)[C@H](NC(=O)[C@@H](NC(=O)[C@H](Cc1c[nH]c2ccccc12)NC(C)=O)[C@@H](C)O)C(=O)N[C@H]1CSSC[C@@H](C(=O)N[C@@H](Cc2c[nH]c3ccccc23)C(=O)N2CCC[C@H]2C(=O)N2CCC[C@@H]2C(=O)N2CCC[C@@H]2C(=O)N2CCC[C@@H]2C(=O)NCCOCCOCCOCCOCCOCCOCCOCCOCCC(=O)N[C@H](CCCCNC(=O)CN2CCN(CC(=O)O)CCN(CC(=O)O)CCN(CC(=O)O)CC2)C(N)=O)NC(=O)[C@H](CC(=O)O)NC(=O)[C@H](Cc2c[nH]cn2)NC(=O)[C@H](Cc2ccc3ccccc3c2)NC(=O)[C@H](CC(N)=O)NC(=O)[C@H](CC(N)=O)NC1=O [compound 357, Ac-W-T-I-C(3)-N-N-(2Nal)-H-D-C(3)-W-P-(D-Pro)3-PEG8-[D-Lys(DOTA)]-NH2] (Ac-WTICNN[2Nal]HDCWP[dP][dP][dP][PEG8][dK](DOTA)-NH2; disulfide 4-10)	< 1 nM
CC[C@H](C)[C@H](NC(=O)[C@@H](NC(=O)[C@H](Cc1c[nH]c2ccccc12)NC(C)=O)[C@@H](C)O)C(=O)N[C@H]1CSSC[C@@H](C(=O)N[C@@H](Cc2c[nH]c3ccccc23)C(=O)N2CCC[C@H]2C(=O)N[C@H](CCCCNC(=O)[C@H]2CCCN2C(=O)[C@H]2CCCN2C(=O)[C@H]2CCCN2C(=O)CCOCCOCCOCCOCCOCCOCCOCCOCCNC(=O)CN2CCN(CC(=O)O)CCN(CC(=O)O)CCN(CC(=O)O)CC2)C(N)=O)NC(=O)[C@H](CC(=O)O)NC(=O)[C@H](Cc2c[nH]cn2)NC(=O)[C@H](Cc2ccc3ccccc3c2)NC(=O)[C@H](CC(N)=O)NC(=O)[C@H](CC(N)=O)NC1=O [compound 358, Ac-W-T-I-C(3)-N-N-(2Nal)-H-D-C(3)-W-P-[D-Lys((D-Pro)3-PEG8-DOTA)]-NH2] (Ac-WTICNN[2Nal]HDCWP[dK]([dP-dP-dP-PEG8-DOTA])-NH2; disulfide 4-10)	< 1 nM
CC[C@H](C)[C@H](NC(=O)[C@@H](NC(=O)[C@H](Cc1c[nH]c2ccccc12)NC(C)=O)[C@@H](C)O)C(=O)N[C@H]1CSSC[C@@H](C(=O)N[C@@H](Cc2c[nH]c3ccccc23)C(=O)N2C[C@@H](C)[C@H]2C(=O)N[C@H](CCCCNC(=O)CN2CCN(CC(=O)O)CCN(CC(=O)O)CCN(CC(=O)O)CC2)C(N)=O)NC(=O)[C@H](CC(=O)O)NC(=O)[C@H](Cc2c[nH]cn2)NC(=O)[C@H](Cc2ccc3ccccc3c2)NC(=O)[C@H](CC(N)=O)NC(=O)[C@H](CC(N)=O)NC1=O [compound 359, Ac-W-T-I-C(3)-N-N-(2Nal)-H-D-C(3)-W-R-3Me-Aze-[D-Lys(DOTA)]-NH2] (Ac-WTICNN[2Nal]HDCW[X6][dK](DOTA)-NH2; disulfide 4-10)	< 1 nM
CC[C@H](C)[C@H](NC(=O)[C@@H](NC(=O)[C@H](Cc1c[nH]c2ccccc12)NC(C)=O)[C@@H](C)O)C(=O)N[C@H]1CSSC[C@@H](C(=O)N[C@@H](Cc2c[nH]c3ccccc23)C(=O)N2CC[C@@]2(C)C(=O)N[C@H](CCCCNC(=O)CN2CCN(CC(=O)O)CCN(CC(=O)O)CCN(CC(=O)O)CC2)C(N)=O)NC(=O)[C@H](CC(=O)O)NC(=O)[C@H](Cc2c[nH]cn2)NC(=O)[C@H](Cc2ccc3ccccc3c2)NC(=O)[C@H](CC(N)=O)NC(=O)[C@H](CC(N)=O)NC1=O [compound 360, Ac-W-T-I-C(3)-N-N-(2Nal)-H-D-C(3)-W-aMe-Aze-[D-Lys(DOTA)]-NH2] (Ac-WTICNN[2Nal]HDCW[X7][dK](DOTA)-NH2; disulfide 4-10)	< 1 nM

From US20250011368A1, “DLL3 TARGETING PEPTIDES AND CONSTRUCTS THEREOF” (MARIANA ONCOLOGY INC., priority 2023, published 2025)
